Results taken from patent US11529323B2 (priority 2017, dated 2022).

What was measured:
Type in all cases: in vivo, mouse
[1] = tested on: C-26 colon adenocarcinoma cachexia model; assay: Combined androgen and AR-42 study (Study 3), C-26 model
Description: (§1) These studies were performed as previously described (Tseng Y C, et al. J Natl Cancer Inst. 2015 107(12):djv274) with modifications. Tumors were established in the right flank by subcutaneous injection of C-26 cells (0.5×10^6 cells in 0.1 mL). […] TFM-4AS-1 (a potent experimental SARM), dihydrotestosterone (DHT) and vehicles were administered by subcutaneous injection.
Six days after cell injection, animals with palpable tumors were treated once daily for 13 days with vehicles for AR-42 and TFM-4AS-1/DHT (n=9), AR-42 (10 mg/kg; TFM-4AS-1/DHT vehicle; n=10), TFM-4AS-1 (10 mg/kg; AR-42 vehicle; n=9), DHT (3 mg/kg; AR-42 vehicle; n=10), the combination of AR-42 and TFM-4AS-1 (10 mg/kg each; n=9), or the combination of AR-42 (10 mg/kg) and DHT (3 mg/kg)(n=10). Grip strength was measured and tissues collected as in the previous studies.
Forelimb grip strength was measured using Bio-GS3 Grip Strength Test Meter (Forceleader DBA Bioseb, Pinellas Park, Fla.). Each mouse was held by the base of its tail and lowered over the apparatus until its forepaws grasped the metal pull bar. The mouse was then gently pulled horizontally in a straight line away from the grip strength meter until the mouse released the bar. The force applied to the bar at the moment of release was recorded as the peak force. Five measurements were taken from each mouse, the average of which was designated as the mouse's grip strength.

phospho-STAT3 (pSTAT3) [2] = assay: Western blot of phospho-STAT3 in gastrocnemius muscle, Study 1; settings: C-26 tumor-bearing animals
Text: FIG. 4A is a table showing multiplex analysis of diverse serum cytokines in terminal samples from Study 2. Presented cytokines are limited to those showing significant differences from tumor-bearing vehicle-treated controls. G-CSF: granulocyte colony-stimulating factor, GM-CSF: granulocyte macrophage colony-stimulating factor, IL-6: interleukin-6, IL-17: interleukin-17, IP-10: interferon gamma-induced protein 10, KC: chemokine (C-X-C motif) ligand 1, LIF: leukemia inhibitory factor, M-CSF: macrophage colony-stimulating factor. FIG. 4B is a bar graph showin ELISA analysis of serum IL-6 levels in terminal samples from Study 2. ND, not detected. FIG. 4C is a plot showing individual animal serum IL-6 values as determined in A plotted against tumor-corrected terminal bodyweights from Study 2 (Pearson's Correlation). […]
(§2) Western blots from all studies were performed on gastrocnemius muscle from representative animals lysed by Nonidet P-40 isotonic lysis buffer [50 mM Tris-HCl, pH 7.5, 120 mM NaCl, 1% (v/v) Nonidet P-40, 1 mM EDTA, 50 mM NaF, 40 mM glycerophosphate, and […] each of protease inhibitors (aprotinin, pepstatin, and leupeptin)]. Equivalent amounts of protein from each sample, as determined by Bradford assay (Bio-Rad), was resolved by SDS-PAGE and then transferred (semi-dry) onto immobilon-nitrocellulose membranes (Millipore, Billerica, Mass.). […]

[3] = tested on: C-26 colon adenocarcinoma cachexia model; assay: Initial AR-42/GTx-024 combination study (Study 1), C-26 model; settings: for effect on gastrocnemius and quadriceps mass: monotherapy (GTx-024 15 mg/kg; AR-42 10 mg/kg)
Description: as §1
Male CD2F1 mice were stratified by body weight and then randomly assigned into 6 groups of 6 animals each. Historically, 6 animals per group provided sufficient power to detect treatment-mediated differences in tumor-bearing treated animals compared to controls. Tumors were established in four of the groups, while the fifth and sixth groups served as tumor-free controls. Six days later, animals with palpable tumors were treated twice daily for 13 days. […] Body weight, tumor volume, and feed consumption were monitored every other day. Upon sacrifice on day 18, sera were collected and hind limb skeletal muscles, heart, spleen and epididymal adipose tissues were harvested, weighed, flash frozen, and stored for subsequent analyses.
Male CD2F1 mice (6-7 weeks of age; Harlan Laboratories, Indianapolis, Ind.) were group-housed under conditions of constant photoperiod (12-hour light/12-hour dark), temperature and humidity with ad libitum access to water and standard pelleted chow. […] In experiments in which food consumption was determined, the food in each cage was weighed daily and the daily decrease in food weight was divided by the number of mice in the cage. Tumor volumes were calculated from caliper measurements using a standard formula (length×width^2×π/6). Mice were euthanized by CO2 inhalation.

androgen receptor (AR) = assay: Western blot of androgen receptor in gastrocnemius muscle, Study 1; settings: irrespective of tumor burden
Description: FIGS. 3A-B show gene expression of multiple cachexia-associated markers in gastrocnemius muscles of individual animals from Study 1 (n=5-6 per group). Expression was determined by qRT-PCR (Geometric Mean±Geometric STD). FIG. 3A contains bar graphs showing genes associated with muscle atrophy. FIG. 3B is a bar graph showing androgen receptor (AR) mRNA expression. […] Statistics all panels: *p<0.05, ***p<0.001, ****p<0.0001 versus tumor-bearing vehicle-treated controls, Dunnett's multiple comparison test. CEBPO, n=4, insufficient sample to analyze all tumor-bearing GTx-024-treated animals.
as §2, with “Mass.). Membranes were washed twice with TBST [Tris-buffered saline (TBS) containing 0.1% Tween 20], blocked with 5% nonfat milk in TBST for 1 hour, and then washed an additional 3 times.” for “Mass.).”

phospho-STAT3 (pSTAT3) [4] = assay: Phospho-STAT3/STAT3 ELISA in C-26 tumors, Study 2; settings: AR-42 10 mg/kg
Text: FIG. 4A is a table showing multiplex analysis of diverse serum cytokines in terminal samples from Study 2. Presented cytokines are limited to those showing significant differences from tumor-bearing vehicle-treated controls. G-CSF: granulocyte colony-stimulating factor, GM-CSF: granulocyte macrophage colony-stimulating factor, IL-6: interleukin-6, IL-17: interleukin-17, IP-10: interferon gamma-induced protein 10, KC: chemokine (C-X-C motif) ligand 1, LIF: leukemia inhibitory factor, M-CSF: macrophage colony-stimulating factor. FIG. 4B is a bar graph showin ELISA analysis of serum IL-6 levels in terminal samples from Study 2. ND, not detected. FIG. 4C is a plot showing individual animal serum IL-6 values as determined in A plotted against tumor-corrected terminal bodyweights from Study 2 (Pearson's Correlation). […] FIG. 4E is a plot showing spleen weights normalized to tumor-corrected terminal body weights of mice from Study 2. FIG. 4F is a bar graph showing ELISA analysis of STAT3 within C-26 tumors from Study 2. […]
Phospho-STAT3/STAT3 Analysis: Expression of phospho-STAT3 and total STAT3 in C-26 tumor tissues was measured using commercial sandwich ELISA kits according to the manufacturer's instructions (PathScan® Phospho-Stat3, #7300, and Total Stat3, #7305, Cell Signaling Technology, Danvers, Mass.).

Row | Structure (SMILES) | terminal body weight ([1]; Study 3, Day 17, of baseline, C-26 tumor-bearing, AR-42 10 mg/kg oral, TFM-4AS-1 10 mg/kg s.c., DHT 3 mg/kg s.c.) | effect on mass of gastrocnemius or quadriceps ([1]; Study 3, monotherapy (TFM-4AS-1 10 mg/kg; AR-42 10 mg/kg)) | pSTAT3 abundance in gastrocnemius muscle (phospho-STAT3 (pSTAT3) [2]) | terminal body weight, corrected for tumor weight ([3]; Study 1, Day 18, C-26 tumor-bearing, AR-42 10 mg/kg, GTx-024 15 mg/kg, oral, 13 days) | effect on gastrocnemius and quadriceps mass ([3]; Study 1, C-26 tumor-bearing) | AR protein expression in gastrocnemius (androgen receptor (AR)) | pSTAT3 signaling within the C-26 tumors (phospho-STAT3 (pSTAT3) [4]) | effect on body weight ([3]; Study 1, C-26 tumor-bearing, GTx-024 15 mg/kg monotherapy) | per animal food consumption ([3]; Study 1, between day 14 and 16, GTx-024 in tumor-free animals, combination in tumor-bearing animals, relative to other groups) | body weight in tumor-free controls ([3]; Study 1, tumor-free mice, GTx-024 15 mg/kg)
1 | CC(C)[C@H](C(=O)Nc1ccc(C(=O)NO)cc1)c1ccccc1 [AR-42, (S)—N-hydroxy-4-(3-methyl-2-phenylbutanamido)benzamide] | 93.5±4.8 | did not significantly impact skeletal muscle masses | reduced pSTAT3 but not equally in all animals | 93.6±7.7 % of baseline | not translated into significant improvements in gastrocnemius and quadriceps mass | did not have a marked impact on AR expression | did not significantly suppress pSTAT3 signaling within the C-26 tumors |  |  | 
2 | C[C@](O)(COc1ccc(C#N)cc1)C(=O)Nc1ccc(C#N)c(C(F)(F)F)c1 [GTx-024, (2S)-3-(4-cyanophenoxy)-N-(4-cyano-3-(trifluoromethyl)phenyl)-2-hydroxy-2-methylpropanamide] |  |  | no apparent effect on pSTAT3 |  | did not spare | increased |  | did not spare body weight | small increases in per animal food consumption | did not cause body weight loss
